These results are taken from patent US11317627B2, “Soybean disease control composition and soybean disease control method” (priority 2015, dated 2022).

Test [1] relates to soybean rust fungus (Phakopsora pachyrhizi). As to the kind of experiment: Test on spore germination inhibition against soybean rust fungus. The format is cell-based. The conditions noted are these: single use, 25° C., 5 hours. On the procedure: Test Example 1: Test on Spore Germination Inhibition Against Soybean Rust Fungus (Phakopsora pachyrhizi)
A spore suspension of soybean rust fungus was added to an aqueous chemical solution prepared so as to contain each test compound in a predetermined concentration and the whole was kept in a moist chamber at 25° C. for 5 hours. Thereafter, the presence of spore germination was investigated using a microscope, the spore germination rate was determined, and the spore germination inhibition rate was determined according to the following calculation formula. Spore germination inhibition rate=(1−a/b)×100 • a: spore germination rate in treated section, b: spore germination rate in untreated section Colby's formula=(X+Y)−XY/100 • X: spore germination inhibition rate in single use of ingredient (a) • Y: spore germination inhibition rate in single use of ingredient (b)
Based on the obtained spore germination inhibition rate, the theoretical value (spore germination inhibition rate) was calculated using the Colby's formula. The theoretical value according to the Colby's formula was shown in brackets ( ) in Tables 1 to 6.
In the case where the experimental value is higher than the theoretical value, the composition of the present invention has a synergistic effect on soybean rust fungus.

Test [2] relates to Rhizoctonia solani. As to the kind of experiment: Test on mycelial growth inhibition effect against soybean Rhizoctonia rot. The format is cell-based. The note with it: single use, PSA, 20° C., 2 days. On the procedure: Test Example 2: Test on Mycelial Growth Inhibition Effect Against Soybean Rhizoctonia Rot (Rhizoctonia solani)
A colony (4 mmϕ) obtained by preculture was inoculated to PSA containing a chemical agent of a predetermined concentration and, after culture at a room temperature of 20° C. for 2 days, the diameter of the grown colony was measured to determine a mycelial growth inhibition rate. Mycelial growth inhibition rate=(1−A/B)×100 • A: diameter of colony in treated section, B: diameter of colony in untreated section Colby's formula=(X+Y)−XY/100 • X: mycelial growth inhibition rate in single use of ingredient (a) • Y: mycelial growth inhibition rate in single use of ingredient (b)
Based on the obtained experimental value of the mycelial growth inhibition rate, the theoretical value of the mycelial growth inhibition rate was calculated using the Colby's formula. The theoretical value according to the Colby's formula was shown in brackets ( ) in Tables 7 to 11.
In the case where the experimental value is higher than the theoretical value, the composition of the present invention has a synergistic effect on Rhizoctonia solani.

[3] abbreviates: Phakopsora pachyrhizi, read-out: Spore germination inhibition rate.
Where [4] appears, read: Phakopsora pachyrhizi, 0.1 ppm, read-out: Spore germination inhibition rate.
The mark [5] stands for this setting: Rhizoctonia solani, 48 h, 0.1 ppm, read-out: Mycelial growth inhibition rate.
Where [6] appears, read: Rhizoctonia solani, 48 h, 1 ppm, read-out: Mycelial growth inhibition rate.
[7] abbreviates: Rhizoctonia solani, 48 h, read-out: Mycelial growth inhibition rate.

For `Cn1cc(C(=O)Nc2cccc3c2[C@@H]2CC[C@H]3C2=C(Cl)Cl)c(C(F)F)n1` (racemic) [Benzovindiflupyr, benzovindiflupyr], the “Spore germination inhibition rate” value in test [1] (0.1 ppm) amounted to 45%; in test [1] (1 ppm) it was 52%. In addition, in test [2] (0.1 ppm), the “Mycelial growth inhibition rate” value is 71%.
With `Fc1ccc([C@]2(Cn3cncn3)O[C@H]2c2ccccc2Cl)cc1` (racemic) [Epoxiconazole, epoxiconazole], the inhibition at 0.01 ppm in test [1] (setting [3]) came out at 1%. Besides, the inhibition at 0.1 ppm turned out to be 5% in test [1] (setting [4]) and 39% in test [2] (setting [5]). The inhibition at 1 ppm in test [2] (setting [6]) turned out to be 83%.
With `CC(C1CC1)C(O)(Cn1cncn1)c1ccc(Cl)cc1` (stereo not shown) [Cyproconazole, cyproconazole], the inhibition at 0.1 ppm came out at 9% in test [1] (setting [4]) and 34% in test [2] (setting [5]). Also, the inhibition at 0.01 ppm in test [2] (setting [7]) came out at 7%. Also, the inhibition at 1 ppm in test [2] (setting [6]) came to 80%.
In the case of `O=[N+]([O-])c1cc(C(F)(F)F)c(Cl)c([N+](=O)[O-])c1Nc1ncc(C(F)(F)F)cc1Cl` [Fluazinam, fluazinam], the inhibition at 0.1 ppm in test [1] (setting [4]) was found to be 27%; in test [2] (setting [5]), 73%. Besides, the inhibition at 1 ppm was found to be 71% in test [1] (Phakopsora pachyrhizi, 1 ppm, read-out: Spore germination inhibition rate) and 88% in test [2] (setting [6]). Besides, the inhibition at 0.001 ppm in test [2] (Rhizoctonia solani, 48 h, 0.001 ppm, read-out: Mycelial growth inhibition rate) worked out at 2%. Besides, the inhibition at 0.01 ppm in test [2] (setting [7]) stood at 14%. The “Mycelial growth inhibition rate” value in test [2] (0.1 ppm) came to 78%; in test [2] (1 ppm), 92%.
`Cn1cc(C(=O)Nc2ccccc2-c2cc(F)c(F)c(F)c2)c(C(F)F)n1` [Fluxapyroxad, fluxapyroxad]: the “Spore germination inhibition rate” value in test [1] (1 ppm) stood at 41%. Besides, the “Mycelial growth inhibition rate” value in test [2] (0.1 ppm) came to 42%.
With `OC(Cc1ccccc1Cl)(Cn1nc[nH]c1=S)C1(Cl)CC1` (stereo not shown) [Prothioconazole, prothioconazole], the inhibition at 0.01 ppm in test [1] (setting [3]) was 37%. In test [1] (setting [4]), the inhibition at 0.1 ppm was found to be 89%.
Consider `CC(C)(C)C(O)(CCc1ccc(Cl)cc1)Cn1cncn1` (stereo not shown) [Tebuconazole, tebuconazole], for which the inhibition at 0.01 ppm in test [1] (setting [3]) came out at 12%; in test [2] (setting [7]), 17%. Besides, the inhibition at 0.1 ppm in test [1] (setting [4]) turned out to be 88%; in test [2] (setting [5]), 31%. The inhibition at 1 ppm in test [2] (setting [6]) is 70%.
